Experimental data published in ChEMBL document CHEMBL4007491, “Structure-based drug design of novel ASK1 inhibitors using an integrated lead optimization strategy” (Bioorg Med Chem Lett, 2017).

What was measured:
[1] = molecular target: CYP2C9 (Homo sapiens, UniProt P11712); test: Inhibition of CYP2C9 (unknown origin) at 10 uM relative to control; assay type: ADME
[2] = molecular target: Receptor tyrosine-protein kinase erbB-4 (Homo sapiens, UniProt Q15303); test: Inhibition of recombinant human N-terminal GST-tagged ERBB4 cytoplasmic domain (708 to 993 residues) expressed in baculovirus expression system
Receptor tyrosine-protein kinase erbB-4, sequence (Q15303 whole entry, the tested form may be a part): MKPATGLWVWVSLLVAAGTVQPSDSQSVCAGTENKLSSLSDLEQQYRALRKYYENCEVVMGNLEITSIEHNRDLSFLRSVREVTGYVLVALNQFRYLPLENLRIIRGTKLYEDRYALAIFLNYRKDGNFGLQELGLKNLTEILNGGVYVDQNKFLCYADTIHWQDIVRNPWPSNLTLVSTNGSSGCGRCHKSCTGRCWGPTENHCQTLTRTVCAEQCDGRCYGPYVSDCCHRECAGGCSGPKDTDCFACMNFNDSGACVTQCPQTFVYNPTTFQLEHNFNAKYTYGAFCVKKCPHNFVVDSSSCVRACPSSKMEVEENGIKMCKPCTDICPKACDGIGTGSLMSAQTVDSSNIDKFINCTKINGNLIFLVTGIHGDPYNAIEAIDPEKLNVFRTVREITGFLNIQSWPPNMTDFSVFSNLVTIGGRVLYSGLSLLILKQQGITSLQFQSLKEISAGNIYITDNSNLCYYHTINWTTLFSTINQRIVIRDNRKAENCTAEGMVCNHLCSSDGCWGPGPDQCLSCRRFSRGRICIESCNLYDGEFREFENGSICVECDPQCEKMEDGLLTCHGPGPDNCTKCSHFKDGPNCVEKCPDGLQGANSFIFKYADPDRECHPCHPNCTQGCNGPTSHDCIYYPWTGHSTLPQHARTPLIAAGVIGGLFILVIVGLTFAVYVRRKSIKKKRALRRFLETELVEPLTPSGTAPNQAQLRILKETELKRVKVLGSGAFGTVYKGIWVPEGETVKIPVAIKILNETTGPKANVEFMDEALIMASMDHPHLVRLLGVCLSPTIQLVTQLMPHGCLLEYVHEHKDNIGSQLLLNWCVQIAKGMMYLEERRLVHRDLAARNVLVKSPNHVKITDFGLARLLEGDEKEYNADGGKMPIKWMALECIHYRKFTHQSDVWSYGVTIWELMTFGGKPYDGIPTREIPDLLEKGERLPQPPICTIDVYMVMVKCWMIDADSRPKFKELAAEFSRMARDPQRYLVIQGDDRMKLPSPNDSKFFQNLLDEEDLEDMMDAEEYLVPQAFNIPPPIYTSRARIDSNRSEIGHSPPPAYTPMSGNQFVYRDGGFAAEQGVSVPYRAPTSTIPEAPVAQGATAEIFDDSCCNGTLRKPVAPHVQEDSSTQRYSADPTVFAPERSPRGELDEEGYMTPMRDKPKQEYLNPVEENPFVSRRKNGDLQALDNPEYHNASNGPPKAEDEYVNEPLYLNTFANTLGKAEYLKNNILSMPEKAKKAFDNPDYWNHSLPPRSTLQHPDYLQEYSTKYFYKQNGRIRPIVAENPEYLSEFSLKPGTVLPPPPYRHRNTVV

[3] = molecular target: T1, Tyrosine-protein kinase Mer (Homo sapiens, UniProt Q12866); test: Inhibition of recombinant human GST-tagged MER cytoplasmic domain expressed in baculovirus expression system
T1 sequence (Q12866 whole entry): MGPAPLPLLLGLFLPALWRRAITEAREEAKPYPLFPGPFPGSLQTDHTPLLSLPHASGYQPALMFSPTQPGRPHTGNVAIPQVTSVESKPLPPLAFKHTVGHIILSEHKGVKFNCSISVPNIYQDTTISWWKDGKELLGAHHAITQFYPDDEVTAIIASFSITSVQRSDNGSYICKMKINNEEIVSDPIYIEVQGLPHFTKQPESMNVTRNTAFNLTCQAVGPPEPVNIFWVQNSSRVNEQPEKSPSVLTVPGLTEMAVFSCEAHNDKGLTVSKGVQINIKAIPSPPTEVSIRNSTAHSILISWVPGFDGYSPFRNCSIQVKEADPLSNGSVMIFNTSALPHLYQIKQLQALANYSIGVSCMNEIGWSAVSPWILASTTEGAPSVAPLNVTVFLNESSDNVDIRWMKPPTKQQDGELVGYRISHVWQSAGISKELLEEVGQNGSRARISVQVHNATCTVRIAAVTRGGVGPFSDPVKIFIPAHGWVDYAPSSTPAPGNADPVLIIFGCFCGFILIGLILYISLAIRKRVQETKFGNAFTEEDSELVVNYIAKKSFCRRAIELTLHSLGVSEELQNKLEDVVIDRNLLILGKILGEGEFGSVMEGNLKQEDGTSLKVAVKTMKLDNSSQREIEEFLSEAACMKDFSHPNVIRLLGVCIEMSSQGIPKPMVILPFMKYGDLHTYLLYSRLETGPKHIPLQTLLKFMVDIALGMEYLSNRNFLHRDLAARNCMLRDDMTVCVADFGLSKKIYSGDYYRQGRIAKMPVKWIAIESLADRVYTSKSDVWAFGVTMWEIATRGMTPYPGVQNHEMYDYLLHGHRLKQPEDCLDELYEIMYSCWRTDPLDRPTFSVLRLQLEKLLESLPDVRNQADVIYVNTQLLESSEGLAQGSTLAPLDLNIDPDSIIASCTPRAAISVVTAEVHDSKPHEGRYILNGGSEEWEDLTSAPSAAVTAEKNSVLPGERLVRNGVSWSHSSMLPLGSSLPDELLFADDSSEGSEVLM

[4] = molecular target: MAP kinase p38 (Homo sapiens, UniProt O15264+Q15759+Q16539+P53778); test: Inhibition of MAPK p38 (unknown origin)
[5] = molecular target: Macrophage-stimulating protein receptor (Homo sapiens, UniProt Q04912); test: Inhibition of recombinant human GST-tagged RON cytoplasmic domain expressed in baculovirus expression system
Macrophage-stimulating protein receptor, sequence (Q04912 25-304 limits assumed): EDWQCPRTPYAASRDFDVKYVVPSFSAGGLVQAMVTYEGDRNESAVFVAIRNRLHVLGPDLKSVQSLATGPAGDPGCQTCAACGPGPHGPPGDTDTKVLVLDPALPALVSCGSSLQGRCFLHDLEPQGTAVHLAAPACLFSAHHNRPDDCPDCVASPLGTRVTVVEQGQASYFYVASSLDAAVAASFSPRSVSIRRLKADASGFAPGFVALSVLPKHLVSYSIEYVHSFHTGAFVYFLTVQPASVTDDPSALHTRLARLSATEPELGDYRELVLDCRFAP
Macrophage-stimulating protein receptor, sequence (Q04912 310-1400 limits assumed): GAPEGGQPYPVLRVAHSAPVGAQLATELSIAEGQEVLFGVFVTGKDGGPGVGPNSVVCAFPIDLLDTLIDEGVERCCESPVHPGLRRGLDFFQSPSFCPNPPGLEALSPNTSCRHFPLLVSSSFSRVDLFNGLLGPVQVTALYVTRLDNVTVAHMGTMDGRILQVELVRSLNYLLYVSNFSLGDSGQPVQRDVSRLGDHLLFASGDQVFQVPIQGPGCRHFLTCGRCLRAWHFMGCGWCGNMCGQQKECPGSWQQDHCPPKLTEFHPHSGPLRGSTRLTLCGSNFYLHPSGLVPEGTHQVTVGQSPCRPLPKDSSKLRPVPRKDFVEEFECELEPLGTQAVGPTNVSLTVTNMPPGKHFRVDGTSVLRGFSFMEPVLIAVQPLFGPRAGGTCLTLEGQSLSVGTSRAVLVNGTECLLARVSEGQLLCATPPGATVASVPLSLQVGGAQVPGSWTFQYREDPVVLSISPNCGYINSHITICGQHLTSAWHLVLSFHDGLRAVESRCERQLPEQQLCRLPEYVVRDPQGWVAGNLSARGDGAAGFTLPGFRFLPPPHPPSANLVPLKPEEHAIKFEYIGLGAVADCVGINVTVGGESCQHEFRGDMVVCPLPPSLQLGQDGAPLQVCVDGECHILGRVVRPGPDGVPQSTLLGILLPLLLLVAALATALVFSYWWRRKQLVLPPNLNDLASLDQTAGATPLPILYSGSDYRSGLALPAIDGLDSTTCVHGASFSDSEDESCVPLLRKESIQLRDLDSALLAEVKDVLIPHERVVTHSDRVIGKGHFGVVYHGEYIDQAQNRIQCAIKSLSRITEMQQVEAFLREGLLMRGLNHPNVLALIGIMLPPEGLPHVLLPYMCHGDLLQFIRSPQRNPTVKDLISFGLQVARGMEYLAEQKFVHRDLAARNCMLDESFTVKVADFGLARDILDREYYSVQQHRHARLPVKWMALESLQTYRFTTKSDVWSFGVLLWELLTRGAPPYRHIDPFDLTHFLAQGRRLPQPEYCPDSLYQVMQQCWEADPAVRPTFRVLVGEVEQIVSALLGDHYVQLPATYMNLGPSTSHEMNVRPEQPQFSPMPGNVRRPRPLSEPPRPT

CYP2C9, sequence (P11712 whole entry, the tested form may be a part): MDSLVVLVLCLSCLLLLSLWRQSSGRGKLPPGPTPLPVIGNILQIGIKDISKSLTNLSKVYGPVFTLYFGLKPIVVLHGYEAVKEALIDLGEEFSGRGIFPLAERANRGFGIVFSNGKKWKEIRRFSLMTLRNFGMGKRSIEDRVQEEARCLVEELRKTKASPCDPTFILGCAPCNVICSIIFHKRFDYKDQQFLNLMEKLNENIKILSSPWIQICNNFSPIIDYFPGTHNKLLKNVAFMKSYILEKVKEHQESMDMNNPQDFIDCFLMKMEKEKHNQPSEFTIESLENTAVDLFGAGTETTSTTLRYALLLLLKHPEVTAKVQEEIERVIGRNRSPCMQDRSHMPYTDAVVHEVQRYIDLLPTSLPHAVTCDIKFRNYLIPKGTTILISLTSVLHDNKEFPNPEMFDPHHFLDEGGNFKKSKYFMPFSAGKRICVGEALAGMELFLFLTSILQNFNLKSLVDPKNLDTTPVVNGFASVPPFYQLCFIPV

In the case of `COCCn1cc(NC(=O)c2csc(-c3nncn3C(C)C)n2)cn1`, the inhibition at 10 µM [1] is reported as 36%, the IC50 [2] is reported as over 20 µM and the IC50 [3] is reported as 7.59 µM. For the same molecule, the pIC50 [4] was under 4.7 and the IC50 [5] was over 20 µM.
